# From ChEMBL document CHEMBL1140860, “Synthesis and evaluation of dihydroartemisinin and dihydroartemisitene acetal dimers showing anticancer and antiprotozoal activity” (Bioorg Med Chem, 2009)
# Key:
# [1] = test system: CCRF-CEM; assay: Growth inhibition of human CCRF-CEM cells after 48 hrs by sulforhodamine B assay; format: functional
# [2] = test system: K562; assay: Growth inhibition of human K562 cells after 48 hrs by sulforhodamine B assay; format: functional; conditions: K562, 48 h
# [3] = test system: SR; assay: Growth inhibition of human SR cells after 48 hrs by sulforhodamine B assay; format: functional
# [4] = test system: A549; assay: Growth inhibition of human A549 cells after 48 hrs by sulforhodamine B assay; format: functional; conditions: A549, 48 h
# [5] = test system: HCC 2998; assay: Growth inhibition of human HCC2998 cells after 48 hrs by sulforhodamine B assay; format: functional; conditions: HCC 2998, 48 h
# [6] = test system: HCT-116; assay: Growth inhibition of human HCT116 cells after 48 hrs by sulforhodamine B assay; format: functional; conditions: HCT-116, 48 h
# [7] = test system: HT-29; assay: Growth inhibition of human HT-29 cells after 48 hrs by sulforhodamine B assay; format: functional; conditions: HT-29, 48 h
# [8] = test system: KM12; assay: Growth inhibition of human KM12 cells after 48 hrs by sulforhodamine B assay; format: functional; conditions: KM12, 48 h
# [9] = test system: SF-268; assay: Growth inhibition of human SF268 cells after 48 hrs by sulforhodamine B assay; format: functional; conditions: SF-268, 48 h
# [10] = test system: SF-295; assay: Growth inhibition of human SF295 cells after 48 hrs by sulforhodamine B assay; format: functional; conditions: SF-295, 48 h
# [11] = test system: SF-539; assay: Growth inhibition of human SF539 cells after 48 hrs by sulforhodamine B assay; format: functional; conditions: SF-539, 48 h
# [12] = test system: SNB-75; assay: Growth inhibition of human SNB75 cells after 48 hrs by sulforhodamine B assay; format: functional; conditions: SNB-75, 48 h
# [13] = test system: M14; assay: Growth inhibition of human M14 cells after 48 hrs by sulforhodamine B assay; format: functional; conditions: M14, 48 h
# [14] = test system: Malme-3M; assay: Growth inhibition of human MALME-3M cells after 48 hrs by sulforhodamine B assay; format: functional
# [15] = test system: SK-MEL-2; assay: Growth inhibition of human SK-MEL-2 cells after 48 hrs by sulforhodamine B assay; format: functional; conditions: SK-MEL-2, 48 h
# [16] = test system: UACC-257; assay: Growth inhibition of human UACC257 cells after 48 hrs by sulforhodamine B assay; format: functional; conditions: UACC-257, 48 h
# [17] = test system: UACC-62; assay: Growth inhibition of human UACC62 cells after 48 hrs by sulforhodamine B assay; format: functional; conditions: UACC-62, 48 h
# [18] = test system: IGROV-1; assay: Growth inhibition of human IGROV1 cells after 48 hrs by sulforhodamine B assay; format: functional; conditions: IGROV-1, 48 h
# [19] = test system: OVCAR-3; assay: Growth inhibition of human OVCAR-3 cells after 48 hrs by sulforhodamine B assay; format: functional; conditions: OVCAR-3, 48 h
# [20] = test system: OVCAR-4; assay: Growth inhibition of human OVCAR4 cells after 48 hrs by sulforhodamine B assay; format: functional; conditions: OVCAR-4, 48 h
# [21] = test system: OVCAR-5; assay: Growth inhibition of human OVCAR5 cells after 48 hrs by sulforhodamine B assay; format: functional; conditions: OVCAR-5, 48 h
# [22] = test system: OVCAR-8; assay: Growth inhibition of human OVCAR8 cells after 48 hrs by sulforhodamine B assay; format: functional; conditions: OVCAR-8, 48 h
# [23] = test system: SK-OV-3; assay: Growth inhibition of human SKOV3 cells after 48 hrs by sulforhodamine B assay; format: functional; conditions: SK-OV-3, 48 h
# [24] = test system: 786-0; assay: Growth inhibition of human 786-0 cells after 48 hrs by sulforhodamine B assay; format: functional; conditions: 786-0, 48 h
# [25] = test system: A498; assay: Growth inhibition of human A498 cells after 48 hrs by sulforhodamine B assay; format: functional; conditions: A498, 48 h
# [26] = test system: ACHN; assay: Growth inhibition of human ACHN cells after 48 hrs by sulforhodamine B assay; format: functional
# [27] = test system: CAKI-1; assay: Growth inhibition of human Caki1 cells after 48 hrs by sulforhodamine B assay; format: functional; conditions: CAKI-1, 48 h
# [28] = test system: RXF 393; assay: Growth inhibition of human RXF393 cells after 48 hrs by sulforhodamine B assay; format: functional; conditions: RXF 393, 48 h
# [29] = test system: UO-31; assay: Growth inhibition of human UO31 cells after 48 hrs by sulforhodamine B assay; format: functional; conditions: UO-31, 48 h
# [30] = test system: PC-3; assay: Growth inhibition of human PC3 cells after 48 hrs by sulforhodamine B assay; format: functional; conditions: PC-3, 48 h
# [31] = test system: DU-145; assay: Growth inhibition of human DU145 cells after 48 hrs by sulforhodamine B assay; format: functional; conditions: DU-145, 48 h
# [32] = test system: MCF7; assay: Growth inhibition of human MCF7 cells after 48 hrs by sulforhodamine B assay; format: functional; conditions: MCF7, 48 h
# [33] = Growth inhibition of human Hs 578T cells after 48 hrs by sulforhodamine B assay; format: functional
# [34] = test system: MDA-MB-435; assay: Growth inhibition of human MDA-MB-435 cells after 48 hrs by sulforhodamine B assay; format: functional; conditions: MDA-MB-435, 48 h
# [35] = test system: MDA-N; assay: Growth inhibition of human MDA-N cells after 48 hrs by sulforhodamine B assay; format: functional
# [36] = test system: BT-549; assay: Growth inhibition of human BT549 cells after 48 hrs by sulforhodamine B assay; format: functional; conditions: BT-549, 48 h
# [37] = test system: T47D; assay: Growth inhibition of human T47D cells after 48 hrs by sulforhodamine B assay; format: functional
# [38] = test system: Plasmodium falciparum; assay: Antimalarial activity after 72 hrs against chloroquine-sensitive Plasmodium falciparum D6 infected in erythrocytes by LDH assay; format: functional, organism-based; conditions: D6, 72 h
# [39] = Selectivity index, ratio of TC50 for african green monkey (Cercopithecus aethiops) Vero cells to IC50 for chloroquine-sensitive Plasmodium falciparum D6; format: toxicity, cell-based
# [40] = test system: Plasmodium falciparum; assay: Antimalarial activity after 72 hrs against chloroquine-resistant Plasmodium falciparum W2 infected erythrocytes by LDH assay; format: functional, organism-based; conditions: W2, 72 h
# [41] = Cytotoxicity against african green monkey Vero cells after 48 hrs by neutral red assay; format: cell-based; conditions: chlorocebus sabaeus, read-out: TC50
# [42] = test system: HOP-62; assay: Growth inhibition of human HOP62 cells after 48 hrs by sulforhodamine B assay; format: functional; conditions: HOP-62, 48 h
# [43] = test system: HOP-92; assay: Growth inhibition of human HOP92 cells after 48 hrs by sulforhodamine B assay; format: functional; conditions: HOP-92, 48 h
# [44] = test system: NCI-H226; assay: Growth inhibition of human NCI-H226 cells after 48 hrs by sulforhodamine B assay; format: functional; conditions: NCI-H226, 48 h
# [45] = test system: NCI-H23; assay: Growth inhibition of human NCI-H23 cells after 48 hrs by sulforhodamine B assay; format: functional; conditions: NCI-H23, 48 h
# [46] = test system: NCI-H322M; assay: Growth inhibition of human NCI-H322M cells after 48 hrs by sulforhodamine B assay; format: functional
# [47] = test system: NCI-H522; assay: Growth inhibition of human NCI-H522 cells after 48 hrs by sulforhodamine B assay; format: functional; conditions: NCI-H522, 48 h
# [48] = test system: COLO 205; assay: Growth inhibition of human COLO205 cells after 48 hrs by sulforhodamine B assay; format: functional; conditions: COLO 205, 48 h
# [49] = test system: TK-10; assay: Growth inhibition of human TK10 cells after 48 hrs by sulforhodamine B assay; format: functional; conditions: TK-10, 48 h
# [50] = test system: NCI-H460; assay: Growth inhibition of human NCI-H460 cells after 48 hrs by sulforhodamine B assay; format: functional; conditions: NCI-H460, 48 h
smiles,measurement,setting,value
C[C@H]1[C@@H](OCC(O)CO[C@@H]2C[C@@H]3CC[C@@H](C)[C@@H]4CC[C@@]5(C)OO[C@@]34[C@H](O2)O5)O[C@@H]2O[C@@]3(C)CC[C@H]4[C@H](C)CC[C@@H]1[C@@]24OO3 (some centres not stated),GI50,[1],0.104 µM
same,GI50,[2],0.06 µM
same,GI50,[3],0.178 µM
same,GI50,[4],0.505 µM
same,GI50,[5],7.02 µM
same,GI50,[6],0.049 µM
same,GI50,[7],0.268 µM
same,GI50,[8],0.166 µM
same,GI50,[9],13.7 µM
same,GI50,[10],9.52 µM
same,GI50,[11],8.64 µM
same,GI50,[12],8.25 µM
same,GI50,[13],14.9 µM
same,GI50,[14],8.82 µM
same,GI50,[15],14.2 µM
same,GI50,[16],0.257 µM
same,GI50,[17],0.296 µM
same,GI50,[18],13.1 µM
same,GI50,[19],0.171 µM
same,GI50,[20],0.209 µM
same,GI50,[21],17.7 µM
same,GI50,[22],0.252 µM
same,GI50,[23],21.4 µM
same,GI50,[24],0.417 µM
same,GI50,[25],0.686 µM
same,GI50,[26],0.248 µM
same,GI50,[27],0.256 µM
same,GI50,[28],0.213 µM
same,GI50,[29],0.108 µM
same,GI50,[30],0.035 µM
same,GI50,[31],13.8 µM
same,GI50,[32],0.095 µM
same,GI50,[33],12.5 µM
same,GI50,[34],0.301 µM
same,GI50,[35],0.368 µM
same,GI50,[36],0.408 µM
same,GI50,[37],0.027 µM
same,IC50,[38],0.3 µM
same,selectivity ratio,[39],> 23800
same,IC50,[40],1.2 µM
same,CC50 at 48 h,[41],> 7620 µM
same,GI50,[42],13.3 µM
same,GI50,[43],0.384 µM
same,GI50,[44],61.7 µM
same,GI50,[45],0.135 µM
same,GI50,[46],62.5 µM
same,GI50,[47],0.521 µM
same,GI50,[48],0.04 µM
C[C@H]1[C@@H](OCCO[C@H]2O[C@@H]3O[C@@]4(C)CC[C@H]5[C@H](C)CC[C@@H]([C@H]2C)[C@@]35OO4)O[C@@H]2O[C@@]3(C)CC[C@H]4[C@H](C)CC[C@@H]1[C@@]24OO3,GI50,[1],0.068 µM
same,GI50,[2],0.014 µM
same,GI50,[3],0.077 µM
same,GI50,[4],0.063 µM
same,GI50,[5],6.92 µM
same,GI50,[6],0.026 µM
same,GI50,[7],0.041 µM
same,GI50,[8],0.081 µM
same,GI50,[9],0.46 µM
same,GI50,[10],0.8 µM
same,GI50,[11],0.3 µM
same,GI50,[12],0.887 µM
same,GI50,[13],0.183 µM
same,GI50,[14],0.504 µM
same,GI50,[15],0.243 µM
same,GI50,[16],0.343 µM
same,GI50,[17],0.343 µM
same,GI50,[18],0.065 µM
same,GI50,[20],0.036 µM
same,GI50,[21],0.083 µM
same,GI50,[22],0.179 µM
same,GI50,[23],0.798 µM
same,GI50,[24],0.305 µM
same,GI50,[25],77.2 µM
same,GI50,[26],0.257 µM
same,GI50,[27],0.297 µM
same,GI50,[28],10.6 µM
same,GI50,[49],0.206 µM
same,GI50,[29],0.469 µM
same,GI50,[30],0.01 µM
same,GI50,[31],0.22 µM
same,GI50,[32],0.034 µM
same,GI50,[33],0.656 µM
same,GI50,[34],0.572 µM
same,GI50,[35],0.219 µM
same,GI50,[36],14.3 µM
same,GI50,[37],0.015 µM
same,IC50,[38],1.7 µM
same,selectivity ratio,[39],> 48
same,IC50,[40],1.2 µM
same,CC50 at 48 h,[41],> 80 µM
same,GI50,[42],0.107 µM
same,GI50,[43],0.149 µM
same,GI50,[44],0.321 µM
same,GI50,[45],1.15 µM
same,GI50,[46],> 100 µM
same,GI50,[50],0.15 µM
same,GI50,[47],0.069 µM
same,GI50,[48],0.49 µM
